Source: ChEMBL document CHEMBL1159092, “Polar 3-alkylidene-5-pivaloyloxymethyl-5'-hydroxymethyl-gamma-lactones as protein kinase C ligands and antitumor agents” (Bioorg Med Chem Lett, 2010)
pKi: −log10 of the molar value. Converted amounts (≈) assume the structure as drawn.

Tests used:
[1] = Antitumor activity against human Hs 578T cells; type: functional
COLO 205 = assay: Antitumor activity against human COLO205 cells; type: functional
SK-MEL-5 = assay: Antitumor activity against human SK-MEL-5 cells; type: functional
[2] = Antitumor activity against human NCI-H322 cells; type: functional
[3] = biological target: Protein kinase C alpha type (Homo sapiens, UniProt P17252); assay: Displacement of [20-3H]phorbol 12,13-dibutyrate from recombinant PKCalpha
K562 = assay: Antitumor activity against human K562 cells; type: functional
MOLT-4F = assay: Antitumor activity against human MOLT4F cells; type: functional
CCRF-CEM = assay: Antitumor activity against human CCRF-CEM cells; type: functional
HL-60 = assay: Antitumor activity against human HL60 cells; type: functional

Which GI50 [1] does the source give for `CCCCCOCCCCCCC/C=C1\CC(CO)(COC(=O)C(C)(C)C)OC1=O` (stereo not drawn) here?
The GI50 was 3 µg/mL (≈ 7.04 µM).

What about the GI50 (COLO 205) of the same molecule?
The GI50 was 0.491 µg/mL (≈ 1.15 µM).

And the GI50 (SK-MEL-5)?
The GI50 was 2.99 µg/mL (≈ 7.02 µM).

What about the GI50 [2] of the same molecule?
The GI50 was 9.52 µg/mL (≈ 22.3 µM).

What about the pKi [3] of the same molecule?
Its pKi is 8.09.

What about the GI50 (K562) of the same molecule?
Its GI50 is 1.15 µg/mL (≈ 2.69 µM).

And the GI50 (MOLT-4F)?
Its GI50 is 1.03 µg/mL (≈ 2.41 µM).

What about the GI50 (CCRF-CEM) of the same molecule?
The GI50 was 0.877 µg/mL (≈ 2.06 µM).

And the GI50 (HL-60)?
The GI50 was 2.96 µg/mL (≈ 6.94 µM).

Which results are given for `COCCCCCCCCCCCCCCC/C=C1/CC(CO)(COC(=O)C(C)(C)C)OC1=O` (stereo not drawn)?
GI50 [1]: 6.77 µg/mL (≈ 14 µM); GI50 (COLO 205): 0.178 µg/mL (≈ 0.369 µM); GI50 (SK-MEL-5): 2.13 µg/mL (≈ 4.42 µM); GI50 [2]: > 10 µg/mL; pKi [3]: 8.30; GI50 (K562): 0.138 µg/mL (≈ 0.286 µM); GI50 (MOLT-4F): 1.64 µg/mL (≈ 3.4 µM); GI50 (CCRF-CEM): < 0.1 µg/mL; GI50 (HL-60): 3.97 µg/mL (≈ 8.22 µM)

With `CC(=O)NCCCCCCCCCCCCCCC/C=C1\CC(CO)(COC(=O)C(C)(C)C)OC1=O` (stereo not drawn) as the molecule, how does the GI50 [1] read?
Its GI50 is greater than 10 µg/mL.

And the GI50 (COLO 205)?
Its GI50 is 4.74 µg/mL (≈ 9.29 µM).

What about the GI50 (SK-MEL-5) of the same molecule?
Its GI50 is greater than 10 µg/mL.

And the GI50 [2]?
The GI50 was greater than 10 µg/mL.

And the pKi [3]?
Its pKi is 8.08.

And the GI50 (K562)?
Its GI50 is 3.38 µg/mL (≈ 6.64 µM).

And the GI50 (MOLT-4F)?
Its GI50 is 6.35 µg/mL (≈ 12.5 µM).

What about the GI50 (CCRF-CEM) of the same molecule?
Its GI50 is 1.08 µg/mL (≈ 2.11 µM).

And the GI50 (HL-60)?
Its GI50 is greater than 10 µg/mL.

With `CC(C)(C)C(=O)OCC1(CO)C/C(=C\CCCCCCC=O)C(=O)O1` (stereo not drawn) as the molecule, how does the pKi [3] read?
The pKi was 7.41.

Which results are given for `CC(C)(C)C(=O)OCC1(CO)C/C(=C/CCCCCCCCCCCCCCCO)C(=O)O1` (stereo not drawn)?
GI50 [1]: > 10 µg/mL; GI50 (COLO 205): 2.34 µg/mL (≈ 4.99 µM); GI50 (SK-MEL-5): 5.34 µg/mL (≈ 11.4 µM); GI50 [2]: > 10 µg/mL; pKi [3]: 8.08; GI50 (K562): 0.872 µg/mL (≈ 1.86 µM); GI50 (MOLT-4F): 1.37 µg/mL (≈ 2.93 µM); GI50 (CCRF-CEM): 6.63 µg/mL (≈ 14.1 µM); GI50 (HL-60): 6.39 µg/mL (≈ 13.6 µM)

With `CCCCCCCCCOCCC/C=C1\CC(CO)(COC(=O)C(C)(C)C)OC1=O` (stereo not drawn) as the molecule, how does the pKi [3] read?
Its pKi is 8.13.

With `CC(C)(C)C(=O)OCC1(CO)C/C(=C\CCCCCCCO)C(=O)O1` (stereo not drawn) as the molecule, how does the pKi [3] read?
The pKi was 6.42.

Which GI50 [1] does the source give for `CC(C)(C)C(=O)OCC1(CO)C/C(=C\CCCCCCCCCCCCCCC=O)C(=O)O1` (stereo not drawn) here?
Its GI50 is greater than 10 µg/mL.

What about the GI50 (COLO 205) of the same molecule?
The GI50 was greater than 10 µg/mL.

And the GI50 (SK-MEL-5)?
Its GI50 is greater than 10 µg/mL.

What about the GI50 [2] of the same molecule?
Its GI50 is greater than 10 µg/mL.

What about the pKi [3] of the same molecule?
Its pKi is 8.20.

And the GI50 (K562)?
Its GI50 is 5.11 µg/mL (≈ 10.9 µM).

And the GI50 (MOLT-4F)?
Its GI50 is greater than 10 µg/mL.

And the GI50 (CCRF-CEM)?
Its GI50 is 0.933 µg/mL (≈ 2 µM).

What about the GI50 (HL-60) of the same molecule?
Its GI50 is greater than 10 µg/mL.

For `CC(=O)OCCCCCCCCCCCCCCC/C=C1\CC(CO)(COC(=O)C(C)(C)C)OC1=O` (stereo not drawn), which GI50 [1] is on record?
The GI50 was greater than 10 µg/mL.

What about the GI50 (COLO 205) of the same molecule?
The GI50 was 2.1 µg/mL (≈ 4.11 µM).

What about the GI50 (SK-MEL-5) of the same molecule?
The GI50 was 5.62 µg/mL (≈ 11 µM).

And the GI50 [2]?
The GI50 was greater than 10 µg/mL.

What about the pKi [3] of the same molecule?
The pKi was 8.03.

What about the GI50 (K562) of the same molecule?
Its GI50 is 0.959 µg/mL (≈ 1.88 µM).

And the GI50 (MOLT-4F)?
Its GI50 is 1.55 µg/mL (≈ 3.03 µM).

What about the GI50 (CCRF-CEM) of the same molecule?
The GI50 was 7.55 µg/mL (≈ 14.8 µM).

And the GI50 (HL-60)?
Its GI50 is greater than 10 µg/mL.

For `COC(=O)CCCCCCCCCCCCCC/C=C1\CC(CO)(COC(=O)C(C)(C)C)OC1=O` (stereo not drawn), which GI50 [1] is on record?
Its GI50 is greater than 10 µg/mL.

What about the GI50 (COLO 205) of the same molecule?
The GI50 was 3.86 µg/mL (≈ 7.77 µM).

What about the GI50 (SK-MEL-5) of the same molecule?
The GI50 was 7.8 µg/mL (≈ 15.7 µM).

What about the GI50 [2] of the same molecule?
Its GI50 is greater than 10 µg/mL.

And the pKi [3]?
The pKi was 8.17.

What about the GI50 (K562) of the same molecule?
Its GI50 is 0.856 µg/mL (≈ 1.72 µM).

And the GI50 (MOLT-4F)?
The GI50 was greater than 10 µg/mL.

And the GI50 (CCRF-CEM)?
Its GI50 is 0.691 µg/mL (≈ 1.39 µM).

What about the GI50 (HL-60) of the same molecule?
Its GI50 is greater than 10 µg/mL.

For `CCCCCCCCC(O)CCCCCC/C=C1\CC(CO)(COC(=O)C(C)(C)C)OC1=O` (stereo not drawn), which GI50 [1] is on record?
Its GI50 is greater than 10 µg/mL.

What about the GI50 (COLO 205) of the same molecule?
The GI50 was 8.91 µg/mL (≈ 19 µM).

What about the GI50 (SK-MEL-5) of the same molecule?
The GI50 was greater than 10 µg/mL.

And the GI50 [2]?
Its GI50 is greater than 10 µg/mL.

And the pKi [3]?
Its pKi is 6.93.

And the GI50 (K562)?
Its GI50 is 7.3 µg/mL (≈ 15.6 µM).

And the GI50 (MOLT-4F)?
Its GI50 is 7.91 µg/mL (≈ 16.9 µM).

What about the GI50 (CCRF-CEM) of the same molecule?
Its GI50 is 5.71 µg/mL (≈ 12.2 µM).

And the GI50 (HL-60)?
Its GI50 is greater than 10 µg/mL.

With `CC(C)(C)C(=O)OCC1(CO)C/C(=C\CCCCCCCCCCCCCCC(=O)O)C(=O)O1` (stereo not drawn) as the molecule, how does the pKi [3] read?
The pKi was 7.53.

With `COCCCCCCC/C=C1\CC(CO)(COC(=O)C(C)(C)C)OC1=O` (stereo not drawn) as the molecule, how does the pKi [3] read?
Its pKi is 6.72.

Which GI50 [1] does the source give for `CCCCCCCCCCCCC/C=C1\CC(CO)(COC(=O)C(C)(C)C)OC1=O` (stereo not drawn) here?
The GI50 was 2.27 µg/mL (≈ 5.34 µM).

And the GI50 (COLO 205)?
The GI50 was 0.253 µg/mL (≈ 0.596 µM).

What about the GI50 (SK-MEL-5) of the same molecule?
The GI50 was 0.779 µg/mL (≈ 1.83 µM).

What about the GI50 [2] of the same molecule?
Its GI50 is greater than 10 µg/mL.

And the pKi [3]?
The pKi was 8.11.

What about the GI50 (K562) of the same molecule?
The GI50 was less than 0.1 µg/mL.

And the GI50 (MOLT-4F)?
Its GI50 is 0.227 µg/mL (≈ 0.535 µM).

What about the GI50 (CCRF-CEM) of the same molecule?
The GI50 was 0.14 µg/mL (≈ 0.33 µM).

And the GI50 (HL-60)?
The GI50 was 2.4 µg/mL (≈ 5.65 µM).

With `CC(C)(C)C(=O)OCC1(CO)C/C(=C\CCCCCCCCCCCCCCCN=[N+]=[N-])C(=O)O1` (stereo not drawn) as the molecule, how does the pKi [3] read?
Its pKi is 7.81.

With `CC(C)(C)C(=O)OCC1(CO)C/C(=C\CCCCCCCCCCC=O)C(=O)O1` (stereo not drawn) as the molecule, how does the pKi [3] read?
Its pKi is 7.52.
